Results as given in patent US10232021B2, “Calcitonin mimetics for treating diseases and disorders” (KEYBIOSCIENCE AG, priority 2013, dated 2019).
Bridges are numbered along the chain shown (N, C = ends).

Tests used:
[1] = Acute single-dose test on food intake, bodyweight and post-prandial glucose in high fat diet obese rats; assay type: in vivo, Male Sprague-Dawley rats
Protocol: To ensure the in vivo activity of this class of peptides, an acute test of the ability of KBP-056 to reduce food intake, bodyweight and post-prandial glucose compared to UGP302/KBP-042 was conducted. Male Sprague-Dawley rats were fed high fat diet for 8 weeks to induce obesity, and were then exposed to a single subcutaneous dose of 5 μg/kg KBP-056, UGP302/KBP-042 or vehicle (saline) (5 rats per group), and the effect on food intake, bodyweight and blood glucose was assessed. Blood was collected from the tail vein after 18 hours of dosing. Whole blood glucose levels were determined with an ACCU-CHEK® Avia blood glucose meter (Roche Diagnostics, Rotkreuz, Switzerland).

[2] = biological target: T1, Calcitonin Receptor (CTR) (Homo sapiens, UniProt P30988); experiment: PathHunter β-arrestin assay on the calcitonin receptor, incl. prolonged activation; assay type: cell-based; settings: U20S-CALCR cells; 4, 8, 24, 48, 72 h; 0.001-100 nM
T1 construct: host or cells: U2OS
T1 sequence (P30988 25-474): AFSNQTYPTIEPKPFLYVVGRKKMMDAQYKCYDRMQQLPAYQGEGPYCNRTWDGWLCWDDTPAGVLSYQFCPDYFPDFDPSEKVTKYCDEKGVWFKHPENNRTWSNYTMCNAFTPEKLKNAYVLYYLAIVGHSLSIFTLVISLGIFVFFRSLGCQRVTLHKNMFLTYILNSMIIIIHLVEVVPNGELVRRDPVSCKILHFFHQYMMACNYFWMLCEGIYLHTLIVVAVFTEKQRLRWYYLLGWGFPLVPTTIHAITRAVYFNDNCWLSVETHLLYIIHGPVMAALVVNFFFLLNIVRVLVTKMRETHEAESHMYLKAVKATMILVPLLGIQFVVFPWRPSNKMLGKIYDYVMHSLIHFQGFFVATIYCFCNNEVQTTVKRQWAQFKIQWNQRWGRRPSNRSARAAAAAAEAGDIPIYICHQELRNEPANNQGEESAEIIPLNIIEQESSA
Protocol: The following cell lines expressing the calcitonin, amylin and CGRP receptors were purchased and cultured according to the manufacturer's instructions. • 1. Calcitonin Receptor (CTR): U20S-CALCR from DiscoveRx (Cat. No.: 93-0566C3). • 2. Amylin Receptor (AMY-R): CHO-K1 CALCR+RAMP3 from DiscoveRx (Cat. No.: 93-0268C2). • 3. CGRP Receptor (CGRP-R): CHO-K1 CALCRL+RAMP1 from DiscoveRx (Cat. No.: 93-0269C2).
In independent bioassays, CTR, AMY-R and CGRP-R cells were treated with for the indicated timepoints with increasing doses of sCT, UGP-302/KBP-042 or the KBPs identified in Table 3 (0, 0.001, 0.01, 0.1, 1, 10, and 100 nM). […]
In this system, the GPCR is fused in frame with the small enzyme fragment ProLink™ and co-expressed in cells stably expressing a fusion protein of β-Arrestin and the larger, N-terminal deletion mutant of β-gal (called enzyme acceptor or EA). […] This interaction leads to an increase in enzyme activity that can be measured using chemiluminescent PathHunter® Detection Reagents.
The assay was performed in white 384 well plates (Greiner Bio-One, 784080). […] To quantify the GPCR-mediated β-arrestin recruitment the Pathhunter™ Detection Kit (93-0001, DiscoverX) was used and assay performed accordingly to the manufacturer's instructions. […]

[3] = Bone resorption (CTX-I) and cartilage degradation (CTX-II) in rats on HFD; assay type: in vivo; settings: male rats on HFD
Source text: This confirmed that the KBPs maintain their beneficial effects on bone and cartilage despite the amino-acid changes.

[4] = Three-week treatment of ZDF rats: fasting plasma glucose and HbA1c; assay type: in vivo, male ZDF (fa/fa) rats; settings: 5 μg/kg/day subcutaneously once daily, 3 weeks
Protocol: To assess the effects of the peptides in relation to regulation of blood glucose levels, male ZDF rats, which are the gold standard model of Type 2 Diabetes were treated for 3 weeks with the 3 most promising KBPs (023, 056 and 088) and an active comparator (UGP302/KBP-042). Male ZDF (fa/fa) rats were obtained at the age of 7 weeks from Charles River Laboratories (Kisslegg, Deutschland). All animals were housed at the animal facility at Nordic Bioscience with a constant temperature (21-23° C.) and relative humidity (55-65%) on a 12 h light/dark cycle with free access to Purina 5008 rat chow (Brogaarden, Lynge, Denmark) and tap water. At the age of 8 weeks, the animals were randomized into five groups of 8 rats each based upon fasting blood glucose and body weight (Vehicle (saline), UGP302/KBP-042 5 μg/kg/day, KBP-023 5 μg/kg/day, KBP-056 5 μg/kg/day and KBP-088 5 μg/kg/day) and dosing was done subcutaneously once daily. The animals were treated for a total of 3 weeks to assess the effect of the peptides on fasting blood glucose. Blood glucose was monitored using the Accu-Check® Avia monitoring system (Roche Diagnostics, Rotkreuz, Switzerland) and HbA1c levels by the DCA Vantage™ Analyzer (Siemens Healthcare Diagnostics, Deerfield, Ill.).

[5] = Eight-week treatment of obese rats: food intake and bodyweight; assay type: in vivo; settings: 2.5 μg/kg/day subcutaneous
Protocol: To further investigate the potency of KBP-089 against KBP-042 obese rats were dosed with 2.5 μg/kg/day given as subcutaneous injection of either KBP-089 or KBP-042 and then two control groups, a vehicle and a calorie restriction group, in which the food intake was matched to the food intake of the KBP-089 group to shed light on whether effects independent of food intake could be observed.
In FIGS. 11A-11B; the effect of the peptides on food intake (FIG. 11A) and bodyweight (FIG. […]) during the eight week treatment period is shown in the upper and lower panels respectively. […] Additionally, when comparing KBP-089 to the calorie restricted control group (pair-fed), which has received exactly the same amount of food as the KBP-089 group over the study period, it is clear that the weight reduction is not only mediated by a restriction of food intake, but also by other effects.

[6] = Single-dose food intake in obese High-Fat-Diet rats; assay type: in vivo; settings: single subcutaneous dose 1.25, 2.5, 5 μg/kg; obese rats fasted overnight
Protocol: Rats were fed a High-Fat-Diet for 14 weeks prior to the experiment to induce obesity.
Further similar studies were undertaken over different time periods and with different peptides and the results are seen in FIG. 10 and FIGS. 11A-11B. The ability of KBP089 to suppress food intake over 72 hours was compared to that of KBP042 as control and the results are seen in FIG. 10.

Question: What does the source list for “KBP-056: SEQ ID NO: 11; AcCASLSTCVLGKLSQDLHKLQTFPRTDVGANAP-NH2 as printed in Table 3, Cys1-Cys7 disulphide bridge”?
Answer: food intake ([1]; single subcutaneous dose 5 μg/kg, 18-hour period, obese HFD rats): strongly reduced food intake; post-prandial glucose ([1]; single subcutaneous dose 5 μg/kg, blood after 18 hours, obese HFD rats): prominent reduction in post-prandial glucose levels; bodyweight ([1]; single subcutaneous dose 5 μg/kg, obese HFD rats): significant weight loss; activation of the CTR (β-arrestin) [2]: superior ability to activate and maintain activation of the CTR; bone resorption (CTX-I) [3]: dose and time-dependently reduced; cartilage degradation (CTX-II) [3]: dose and time-dependently reduced; maximum inhibition of CTX-I and CTX-II [3]: reached three hours after dosing and at doses exceeding 1 μg/kg/day; HbA1c [4]: highly active; fasting plasma glucose (FPG) [4]: highly active

Question: Which “RANK (48 h)” value ([1]; rank symbol + or 0 at 48 h, legend not given) does the source give for “KBP-042: Peptide UGP302 of WO2013/067357, SEQ ID NO: 4; AcCSNLSTCVLGKLSQELHKLQTYPRTDVGANAP-NH2 (Ac-CSNLSTCVLGKLSQELHKLQTYPRTDVGANAP-NH2; ends and bridges not checked) [reference compound]” here?
Answer: 0

Question: And the “bodyweight during eight week treatment” value [5]?
Answer: substantial weight loss

Question: And the “food intake during eight week treatment” value [5]?
Answer: reduce food intake dramatically in the beginning

Question: With “KBP-089: SEQ ID NO: 44; AcCSNLSTCMLGRLSQDLHRLQTYPKTDVGANAP-NH2, Cys1-Cys7 disulphide bridge (Ac-CSNLSTCMLGRLSQDLHRLQTYPKTDVGANAP-NH2; disulfide 1-7; SMILES CSCC[C@H](NC(=O)[C@@H]1CSSC[C@H](NC(C)=O)C(=O)N[C@@H](CO)C(=O)N[C@@H](CC(N)=O)C(=O)N[C@@H](CC(C)C)C(=O)N[C@@H](CO)C(=O)N[C@@H]([C@@H](C)O)C(=O)N1)C(=O)N[C@@H](CC(C)C)C(=O)NCC(=O)N[C@@H](CCCNC(=N)N)C(=O)N[C@@H](CC(C)C)C(=O)N[C@@H](CO)C(=O)N[C@@H](CCC(N)=O)C(=O)N[C@@H](CC(=O)O)C(=O)N[C@@H](CC(C)C)C(=O)N[C@@H](Cc1c[nH]cn1)C(=O)N[C@@H](CCCNC(=N)N)C(=O)N[C@@H](CC(C)C)C(=O)N[C@@H](CCC(N)=O)C(=O)N[C@H](C(=O)N[C@@H](Cc1ccc(O)cc1)C(=O)N1CCC[C@H]1C(=O)N[C@@H](CCCCN)C(=O)N[C@H](C(=O)N[C@@H](CC(=O)O)C(=O)N[C@H](C(=O)NCC(=O)N[C@@H](C)C(=O)N[C@@H](CC(N)=O)C(=O)N[C@@H](C)C(=O)N1CCC[C@H]1C(N)=O)C(C)C)[C@@H](C)O)[C@@H](C)O)” as the substance, how does the “food intake, 0-4 hours” value [6] read?
Answer: led to a reduction in food intake

Question: And the “food intake, 4-24 hours” value [6]?
Answer: the effect was maintained to 24 hours

Question: What about the “food intake, 24-48 hours” value [6] of the same substance?
Answer: led to a reduction in food intake

Question: And the “bodyweight during eight week treatment” value [5]?
Answer: greater than that introduced by KBP-042

Question: And the “food intake during eight week treatment” value [5]?
Answer: reduce food intake dramatically in the beginning
